Target: T1, RORc ligand binding domain (Homo sapiens, UniProt P51449)
T1 construct: host or cells: E. coli
T1 sequence (P51449 269-508 limits assumed): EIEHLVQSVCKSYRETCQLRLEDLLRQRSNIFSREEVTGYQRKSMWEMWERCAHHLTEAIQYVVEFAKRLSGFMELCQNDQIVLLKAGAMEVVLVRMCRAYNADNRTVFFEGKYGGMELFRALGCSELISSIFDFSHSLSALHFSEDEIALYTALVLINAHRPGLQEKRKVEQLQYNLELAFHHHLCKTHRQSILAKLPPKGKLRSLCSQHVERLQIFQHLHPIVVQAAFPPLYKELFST
Assay: In Vitro RORc Ligand Binding Assay (25-[3H]hydroxycholesterol radioligand filtration)
Conditions: read-out: RORc IC50

| IC50 | Structure (SMILES) |
| --- | --- |
| 0.012 µM | CC1CN(S(C)(=O)=O)CCC1Nc1ccc(CN2[C@@H](C)CCC(c3ccccc3)S2(=O)=O)c(F)c1 (stereo partly drawn) [Example 451, [3-Fluoro-4-((3S)-methyl-1,1-dioxo-6-phenyl-[1,2]thiazinan-2-ylmethyl)-phenyl]-(1-methanesulfonyl-3-methyl-piperidin-4-yl)-amine] |
| 0.009 µM | CC1CN(S(C)(=O)=O)CCC1Nc1ccc(CN2[C@@H](C)CCC(c3ccccc3)S2(=O)=O)c(F)c1 (stereo partly drawn) [Example 453, [3-Fluoro-4-((3S)-methyl-1,1-dioxo-6-phenyl-[1,2]thiazinan-2-ylmethyl)-phenyl]-(1-methanesulfonyl-3-methyl-piperidin-4-yl)-amine] |
| 0.123 µM | C[C@H]1CCC(c2ccccc2)S(=O)(=O)N1Cc1ccc(NC(=O)CC2CCOCC2)cc1F (stereo partly drawn) [Example 455, N-[3-Fluoro-4-((3S)-methyl-1,1-dioxo-6-phenyl-[1,2]thiazinan-2-ylmethyl)-phenyl]-2-(tetrahydro-pyran-4-yl)-acetamide] |
| 0.148 µM | CCOC(=O)N1CCC(C(=O)Nc2ccc(CN3[C@@H](C)CCC(c4ccccc4)S3(=O)=O)c(F)c2)CC1 (stereo partly drawn) [Example 456, 4-[3-Fluoro-4-((3S)-methyl-1,1-dioxo-6-phenyl-[1,2]thiazinan-2-ylmethyl)-phenylcarbamoyl]-piperidine-1-carboxylic acid ethyl ester] |
| 0.437 µM | CC(=O)N1CCC(C(=O)Nc2ccc(CN3[C@@H](C)CCC(c4ccccc4)S3(=O)=O)c(F)c2)CC1 (stereo partly drawn) [Example 457, 1-Acetyl-piperidine-4-carboxylic acid [3-fluoro-4-((3S)-methyl-1,1-dioxo-6-phenyl-[1,2]thiazinan-2-ylmethyl)-phenyl]-amide] |
| 0.098 µM | C[C@H]1CCC(c2ccccc2)S(=O)(=O)N1Cc1ccc(NC(=O)C2CN(S(C)(=O)=O)C2)cc1F (stereo partly drawn) [Example 458, 1-Methanesulfonyl-azetidine-3-carboxylic acid [3-fluoro-4-((3S)-methyl-1,1-dioxo-6-phenyl-[1,2]thiazinan-2-ylmethyl)-phenyl]-amide] |
| 0.074 µM | C[C@H]1CCC(c2ccccc2)S(=O)(=O)N1Cc1ccc(NC(=O)C2CCN(S(C)(=O)=O)CC2)cc1F (stereo partly drawn) [Example 459, 1-Methanesulfonyl-piperidine-4-carboxylic acid [3-fluoro-4-((3S)-methyl-1,1-dioxo-6-phenyl-[1,2]thiazinan-2-ylmethyl)-phenyl]-amide] |

Reference: patent US9115101B2 (Genentech, Inc., priority 2012, dated 2015)
